The values below come from patent publication US5955501A, “Protein kinase C modulators O” (priority 1995, dated 1999).

Structures can show the parent of a compound that is named as a salt.

The first test relates to HIV. Put plainly: Anti-HIV activity in HIV-infected human peripheral blood lymphocytes (supernatant viral RNA and p24 core protein). The class given is cell-based. The following applies: Human immunodeficiency virus 1, Lymphocyte, 96 h; supernatant total viral RNA; at four days; read-out: ED50, concentration of drug giving 50% inhibition of production of viral RNA. The method, then: Human peripheral blood lymphocytes were isolated from the buffy coat fractions of blood donations. The lymphocytes were then stimulated with 5 μg/ml of phytohemagglutinin for 48 hours. Prior to infection with HIV, the lymphocytes were washed and resuspended in mitogen-free medium. On day 0 the cells were infected with HIV and were cultured for four days in the presence or absence of graded concentrations of 20-deoxy-20-chlorophorbol 12,13-bis[(2',4'-difluorophenyl)acetate]. On days 3 and 4 the supernatant levels of total viral RNA and viral core protein p24 were determined at each drug concentration and dose-response curves were used to determine the concentration of drug giving 50% inhibition of production of viral RNA and of p24 core protein. At four days these ED50 values were less than 100 pM for both RNA and p24.
In a manner similar to Example 111, the anti-HIV ED50 values for RNA [drug concentration is in brackets] for the following diterpenoid compounds were determined from dose-response curves or by estimation from one or more experimental drug concentrations.
In a manner similar to Example 111, the anti-HIV ED50 values for RNA [drug concentration is in brackets] for the following indolactam-type compounds were determined from dose-response curves or by estimation from one or more experimental drug concentrations, data giving percent inhibition of viral RNA production at selected concentrations appear in parentheses:
In a manner similar to Example 111, the anti-HIV ED50 values for RNA [drug concentration is in brackets] for the following diacylglycero-type compounds were determined from dose-response curves or by estimation from one or more experimental drug concentrations; data giving percent inhibition of viral RNA production at selected concentrations appear in parentheses: […]
In the case of `CC1=C[C@H]2[C@@]3(O)[C@H](C)[C@@H](OC(=O)Cc4ccc(F)cc4F)[C@]4(OC(=O)Cc5ccc(F)cc5F)[C@H]([C@@H]3C=C(CCl)C[C@]2(O)C1=O)C4(C)C` [20-deoxy-20-chlorophorbol 12,13-bis[(2',4'-difluorophenyl)acetate]], the EC50 was < 0.1 nM.

The test is the same for the next values; noted with them: Human immunodeficiency virus 1, Lymphocyte, 96 h; supernatant viral core protein p24; at four days; read-out: ED50, concentration of drug giving 50% inhibition of production of p24 core protein.
As to `CC1=C[C@H]2[C@@]3(O)[C@H](C)[C@@H](OC(=O)Cc4ccc(F)cc4F)[C@]4(OC(=O)Cc5ccc(F)cc5F)[C@H]([C@@H]3C=C(CCl)C[C@]2(O)C1=O)C4(C)C` [20-deoxy-20-chlorophorbol 12,13-bis[(2',4'-difluorophenyl)acetate]], the EC50 was < 0.1 nM.

Still in this test, the particulars now being: Human immunodeficiency virus 1, Lymphocyte, read-out: percent inhibition of viral RNA production.
Broadly, the inhibition is the change of the read-out against control, counted positive when it falls. Turning to `CNC(=O)OC[C@@H]1Cc2cn(CC[P+](c3ccccc3)(c3ccccc3)c3ccccc3)c3cccc(c23)N(C)[C@@H](C(C)C)C(=O)N1` (relative stereo) [rac-14-O-(N-methyl)carbamoyl-1-N-(2'-triphenylphosphonium)ethylindolactam V, methanesulfonate salt], the inhibition at 10 µM turned out to be 82%. For `CNC(=O)OC[C@@H]1Cc2c[nH]c3cccc(c23)N(C)[C@@H](C(C)C)C(=O)N1` (relative stereo) [rac-14-O-(N-methyl)carbamoylindolactam V], the inhibition at 10 µM was determined as 52%. Same read-out and setting: next, `CCCCCCCCc1ccc2c3c(c[nH]c13)C[C@@H](COC(=O)NC)NC(=O)[C@H](C(C)C)N2C` [14-O-(N-Methyl)carbamoyl-7-octyl-(9S,12S)-indolactam V]: 87%.

Still in this test, the particulars now being: Human immunodeficiency virus 1, Lymphocyte; at 10 μM; read-out: percent inhibition of viral RNA production.
With `CCOC(=O)[C@@H]1Cc2cn(CO)c3cccc(c23)N(C)[C@@H](C(C)C)C(=O)N1` [1-N-hydroxymethyl-9-deshydroxymethyl-9-ethoxycarbonylindolactam V], the inhibition at 10 µM stood at 31%.

The test is the same for the next values; noted with them: Human immunodeficiency virus 1, Lymphocyte; from dose-response curves or by estimation from one or more experimental drug concentrations; read-out: anti-HIV ED50 for RNA.
As to `O=C1CCCCCCCCCCCCCCCCCCC(=O)OC(CSCCO)CO1` (stereo not drawn) [3-[(2'-hydroxyethylthio)methyl]-1,6-dioxo-2,5-dioxacyclotetracosane], the EC50 was 10 nM. Regarding `CC1=C[C@H]2[C@@]3(O)[C@H](C)[C@@H](OC(=O)Cc4ccc(F)cc4F)[C@]4(OC(=O)Cc5ccc(F)cc5F)[C@H]([C@@H]3C=C(C#N)C[C@]2(O)C1=O)C4(C)C` [6-deshydroxymethyl-6-cyanophorbol 12,13-bis[(2',4'-difluorophenyl)acetate]], the EC50 was < 100 nM. On the same count and under the same terms, for `COC(=O)C1=C[C@H]2[C@@H]3C(C)(C)[C@]3(OC(=O)Cc3ccc(F)cc3F)[C@H](OC(=O)Cc3ccc(F)cc3F)[C@@H](C)[C@]2(O)[C@@H]2C=C(C)C(=O)[C@@]2(O)C1` [6-deshydroxymethyl-6-methoxycarbonylphorbol 12,13-bis[(2',4'-difluorophenyl)acetate]] the value was 1600 nM; for `CCCCCCCCc1ccc2c3c(c[nH]c13)C[C@@H](CSCCO)NC(=O)[C@H](C(C)C)N2C` [14-deoxy-14-(2'-hydroxyethylthio)-7-octyl-(9S,12S)-indolactam V], 100 nM; for `CC(C)[C@H]1C(=O)N[C@H](CSCCO)Cc2c[nH]c3cccc(c23)N1C` [14-deoxy-14-(2'-hydroxyethylthio)indolactam V], 1000 nM.

`CC1=C[C@H]2[C@@]3(O)[C@H](C)[C@@H](OC(=O)Cc4ccc(F)cc4F)[C@]4(OC(=O)Cc5ccc(F)cc5F)[C@H]([C@@H]3C=C(COC(=O)Oc3ccc(O)cc3)C[C@]2(O)C1=O)C4(C)C` [20-O-(4'-hydroxyphenoxy)carbonylphorbol 12,13-bis[(2',4'-difluorophenyl)acetate]]: the EC50 was < 10 nM. `CC1=C[C@H]2[C@@]3(O)[C@H](C)[C@@H](OC(=O)Cc4ccc(F)cc4F)[C@]4(OC(=O)Cc5ccc(F)cc5F)[C@H]([C@@H]3C=C(C=NO)C[C@]2(O)C1=NO)C4(C)C` [20-deoxy-3-deoxo-3,20-bis(hydroximino)phorbol 12,13-bis[(2',4'-difluorophenyl)acetate]]: the EC50 was 45 nM. Consider `CC1=C[C@H]2[C@@]3(O)[C@H](C)[C@@H](OC(=O)Cc4ccc(F)cc4F)[C@]4(OC(=O)Cc5ccc(F)cc5F)[C@H]([C@@H]3C=C(CSCC(O)CO)C[C@]2(O)C1=O)C4(C)C` (stereo partly drawn) [20-deoxy-20-(2',3'-dihydroxypropylthio)phorbol 12,13-bis[(2',4'-difluorophenyl)acetate]], for which the EC50 was 3000 nM. On the same count and under the same terms, next, `CC1=C[C@H]2[C@@]3(O)[C@H](C)[C@@H](OC(=O)Cc4ccc(F)cc4F)[C@]4(OC(=O)Cc5ccc(F)cc5F)[C@H]([C@@H]3C=C(CSCCC(=O)O)C[C@]2(O)C1=O)C4(C)C` [20-deoxy-20-(2'-carboxyethylthio)phorbol 12,13-bis(2',4'-difluorophenylacetate)]: 4500 nM; `CC1=C[C@H]2[C@@]3(O)[C@H](C)[C@@H](OC(=O)Cc4ccc(F)cc4F)[C@]4(OC(=O)Cc5ccc(F)cc5F)[C@H]([C@@H]3C=C(C[S+]([O-])CCO)C[C@]2(O)C1=O)C4(C)C` (stereo partly drawn) [20-deoxy-20-(2'-hydroxyethylsulfinyl)phorbol 12,13-bis[(2',4'-difluorophenyl)acetate]]: 1600 nM.

For the compound `CCCCCCCCCCCCCC(=O)O[C@@H]1[C@@H](C)[C@@]2(O)[C@@H](C=C(C[S+]([O-])CCO)C[C@]3(O)C(=O)C(C)=C[C@@H]23)[C@@H]2C(C)(C)[C@]12OC(C)=O` (stereo partly drawn) [20-deoxy-20-(2'-hydroxyethylsulfinyl)phorbol 12-myristate 13-acetate], the EC50 was 1100 nM. Regarding `CC1=C[C@H]2[C@@]3(O)[C@H](C)[C@@H](OC(=O)Cc4ccc(F)cc4F)[C@]4(OC(=O)Cc5ccc(F)cc5F)[C@H]([C@@H]3C=C(CS(=O)(=O)CCO)C[C@]2(O)C1=O)C4(C)C` [20-deoxy-20-(2'-hydroxyethylsulfonyl)phorbol 12,13-bis[(2',4'-difluorophenyl)acetate]], the EC50 is 5000 nM. Consider `CCCCCCCCCCCCCC(=O)O[C@@H]1[C@@H](C)[C@@]2(O)[C@@H](C=C(CS(=O)(=O)CCO)C[C@]3(O)C(=O)C(C)=C[C@@H]23)[C@@H]2C(C)(C)[C@]12OC(C)=O` [20-deoxy-20-(2'-hydroxyethylsulfonyl)phorbol 12-myristate 13-acetate], for which the EC50 is 500 nM.

With `CC1=C[C@H]2[C@@]3(O)[C@H](C)[C@@H](OC(=O)Cc4ccc(F)cc4F)[C@]4(OC(=O)Cc5ccc(F)cc5F)[C@H]([C@@H]3C=C(CSCCO)C[C@]2(O)C1=O)C4(C)C` [20-deoxy-20-(2'-hydroxyethylthio)phorbol 12,13-bis[(2',4'-difluorophenyl)acetate]], the EC50 was 1000 nM. As for `CC1=C[C@H]2[C@@]3(O)[C@H](C)[C@@H](OC(=O)Cc4ccc(F)cc4F)[C@]4(OC(=O)Cc5ccc(F)cc5F)[C@H]([C@@H]3C=C(CSCCS)C[C@]2(O)C1=O)C4(C)C` [20-deoxy-20-(2'-mercaptoethylthio)phorbol 12,13-bis[(2',4'-difluorophenyl)acetate]], the EC50 was 50 nM. As to `CCC[S+]([O-])CC1=C[C@H]2[C@@H]3C(C)(C)[C@]3(OC(=O)Cc3ccc(F)cc3F)[C@H](OC(=O)Cc3ccc(F)cc3F)[C@@H](C)[C@]2(O)[C@@H]2C=C(C)C(=O)[C@@]2(O)C1` (stereo partly drawn) [20-deoxy-20-(propylsulfinyl)phorbol 12,13-bis[(2',4'-difluorophenyl)acetate]], the EC50 was 500 nM. Turning to `CC1=C[C@H]2[C@@]3(O)[C@H](C)[C@@H](OC(=O)Cc4ccc(F)cc4F)[C@]4(OC(=O)Cc5ccc(F)cc5F)[C@H]([C@@H]3C=C(CNc3cccc(CO)c3)C[C@]2(O)C1=O)C4(C)C` [20-deoxy-20-[(3'-hydroxymethylphenyl)amino]phorbol 12,13-bis[(2',4'-difluorophenyl)acetate]], the EC50 was 180 nM. On the same count and under the same terms, for `CC1=C[C@H]2[C@@]3(O)[C@H](C)[C@@H](OC(=O)Cc4ccc(F)cc4F)[C@]4(OC(=O)Cc5ccc(F)cc5F)[C@H]([C@@H]3C=C(CN)C[C@]2(O)C1=O)C4(C)C` [20-deoxy-20-aminophorbol 12,13-bis[(2',4'-difluorophenyl)acetate]] the value was 100 nM; for `CC1=C[C@H]2[C@@]3(O)[C@H](C)[C@@H](OC(=O)Cc4ccc(F)cc4F)[C@]4(OC(=O)Cc5ccc(F)cc5F)[C@H]([C@@H]3C=C(CN=[N+]=[N-])C[C@]2(O)C1=O)C4(C)C` [20-deoxy-20-azidophorbol 12,13-bis[(2',4'-difluorophenyl)acetate]], 65 nM; for `CC1=C[C@H]2[C@@]3(O)[C@H](C)[C@@H](OC(=O)Cc4ccc(F)cc4F)[C@]4(OC(=O)Cc5ccc(F)cc5F)[C@H]([C@@H]3C=C(CBr)C[C@]2(O)C1=O)C4(C)C` [20-deoxy-20-bromophorbol 12,13-bis[(2',4'-difluorophenyl)acetate]], < 1 nM.

Staying with this test, now noted: at 10 μM.
Regarding “9-Deshydroxymethyl-9-[N-(2',3'-dihydroxy)propyl]carboxamidoindolactam V”, the “percent inhibition of viral RNA production” value is 22%. The same measure, in the same setting: next, “9-deshydroxymethyl-9-[N-(2'-glucosyl)]carboxamidoindolactam V”: 35%; “9-deshydroxymethyl-9-ethoxycarbonylindolactam V”: 47%; `CC(C)C1C(=O)NC(C(=O)OCC(O)CO)Cc2c[nH]c3cccc(c23)N1C` (stereo not drawn) [9-deshydroxymethyl-9-(2',3'-dihydroxy)propyloxycarbonylindolactam V]: 20%.
